Experiments:
Akt1 = target: T1, Akt1 (Homo sapiens, UniProt P31749); assay: Akt activation assay (PDK1-mediated activation, LANCE Ultra crosstide TR-FRET), Akt1; type: biochemical; conditions: read-out: Biological Assay 1 IC50 (nM) Akt1
T1 construct: unspecified tag, removed (detagged) (cleaved yes); purchased SignalChem and Proteros (Akt1); Merck Millipore (PDK1) 14-452 (PDK1); none given for Akt1
In short: (§1)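 Unactivated Akt (5 nM Akt1, 15 or 5 nM Akt2, 3 or 5 nM Akt3, by supplier) preincubated with compound, then activated by 5 nM PDK1 on DOPS/DOPC/PtdIns(3,4,5)P3 vesicles with 100 μM ATP and 100 nM Ulight-crosstide, pH 7.5, 30 min. Eu-anti-phospho-crosstide TR-FRET (665/615 nm); IC50 by 4-parameter fit.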

Akt2 = target: T2, Akt2 (Homo sapiens, UniProt P31751); assay: Akt activation assay (PDK1-mediated activation, LANCE Ultra crosstide TR-FRET), Akt2; type: biochemical; conditions: read-out: Biological Assay 1 IC50 (nM) Akt2
T2 construct: unspecified tag, removed (detagged) (cleaved yes); purchased SignalChem and Proteros (Akt2); Merck Millipore (PDK1) 14-452 (PDK1); none given for Akt2
In short: as §1

Akt3 = target: T3, Akt3 (Homo sapiens, UniProt Q9Y243); assay: Akt activation assay (PDK1-mediated activation, LANCE Ultra crosstide TR-FRET), Akt3; type: biochemical; conditions: read-out: Biological Assay 1 IC50 (nM) Akt3
T3 construct: unspecified tag, removed (detagged) (cleaved yes); purchased SignalChem and Proteros (Akt3); Merck Millipore (PDK1) 14-452 (PDK1); none given for Akt3
In short: as §1

p-Akt1 in LNCaP cells = target: T4, p-Akt1 in LNCaP cells (Homo sapiens, UniProt P31749); assay: Phospho-Akt cellular SureFire assay, p-Akt1 in LNCaP cells; type: cell-based; conditions: read-out: Biological Assay 2 IC50 (nM) Akt1 LNCaP
T4 construct: SureFire assays to detect cellular p-Akt1, p-Akt2 and p-Akt3 levels in WM115 cells (Akt2/3) and LNCaP cells (Akt1); endogenous in cells; host or cells: LNCaP (ECACC 89110211)
In short: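 LNCaP cells, 5×10^4/well, seeded overnight, switched to 0.1% FBS medium without insulin stimulation, then compound for 15 min at 37 °C (0.3% DMSO). Lysate p-Akt1 (pThr308) by AlphaScreen SureFire, two 2 h incubations at room temperature; IC50 by 4-parameter fit.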

p-Akt2 in WM115 cells = target: T5, p-Akt2 in WM115 cells (Homo sapiens, UniProt P31751); assay: Phospho-Akt cellular SureFire assay, p-Akt2 in WM115 cells; type: cell-based; conditions: insulin stimulated, read-out: Biological Assay 2 IC50 (nM) Akt2 WM115
T5 construct: SureFire assays to detect cellular p-Akt1, p-Akt2 and p-Akt3 levels in WM115 cells (Akt2/3) and LNCaP cells (Akt1); endogenous in cells; host or cells: WM115 (ECACC 91061232), insulin-stimulated
In short: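 WM115 cells in 0.1% FBS medium stimulated 10 min with 100 nM insulin, then exposed to compound for 15 min at 37° C (0.3% DMSO final). Lysates assayed by AlphaScreen with anti-(pThr308)Akt and isoform-specific total Akt2 antibodies; IC50 from 4-parameter fit.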

p-Akt3 in WM115 cells = target: T6, p-Akt3 in WM115 cells (Homo sapiens, UniProt Q9Y243); assay: Phospho-Akt cellular SureFire assay, p-Akt3 in WM115 cells; type: cell-based; conditions: insulin stimulated, read-out: Biological Assay 2 IC50 (nM) Akt3 WM115
T6 construct: SureFire assays to detect cellular p-Akt1, p-Akt2 and p-Akt3 levels in WM115 cells (Akt2/3) and LNCaP cells (Akt1); endogenous in cells; host or cells: WM115 (ECACC 91061232), insulin-stimulated
In short: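 WM115 cells were serum-reduced to 0.1% FBS, stimulated with 100 nM insulin for 10 min, then exposed to compound (0.3% DMSO) for 15 min at 37 °C. Lysates were assayed for Thr308-phosphorylated Akt3 by AlphaScreen SureFire using an isoform-specific total Akt3 capture antibody. IC50 was derived from a 4-parameter fit.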

T4 sequence (P31749 whole entry): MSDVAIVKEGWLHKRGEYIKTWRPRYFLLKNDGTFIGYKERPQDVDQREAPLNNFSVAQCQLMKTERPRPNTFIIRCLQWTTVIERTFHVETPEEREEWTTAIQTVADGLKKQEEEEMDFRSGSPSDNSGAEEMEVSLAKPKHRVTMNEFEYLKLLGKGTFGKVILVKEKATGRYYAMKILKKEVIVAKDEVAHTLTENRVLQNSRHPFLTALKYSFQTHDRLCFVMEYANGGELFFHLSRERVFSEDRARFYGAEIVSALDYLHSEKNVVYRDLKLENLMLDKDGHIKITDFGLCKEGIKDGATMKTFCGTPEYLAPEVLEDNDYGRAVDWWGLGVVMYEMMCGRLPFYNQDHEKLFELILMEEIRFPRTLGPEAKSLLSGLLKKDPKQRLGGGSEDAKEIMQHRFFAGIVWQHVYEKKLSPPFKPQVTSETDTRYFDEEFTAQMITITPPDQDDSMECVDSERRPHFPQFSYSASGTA
T1 sequence (P31749 whole entry): as above
T3 sequence (Q9Y243 whole entry): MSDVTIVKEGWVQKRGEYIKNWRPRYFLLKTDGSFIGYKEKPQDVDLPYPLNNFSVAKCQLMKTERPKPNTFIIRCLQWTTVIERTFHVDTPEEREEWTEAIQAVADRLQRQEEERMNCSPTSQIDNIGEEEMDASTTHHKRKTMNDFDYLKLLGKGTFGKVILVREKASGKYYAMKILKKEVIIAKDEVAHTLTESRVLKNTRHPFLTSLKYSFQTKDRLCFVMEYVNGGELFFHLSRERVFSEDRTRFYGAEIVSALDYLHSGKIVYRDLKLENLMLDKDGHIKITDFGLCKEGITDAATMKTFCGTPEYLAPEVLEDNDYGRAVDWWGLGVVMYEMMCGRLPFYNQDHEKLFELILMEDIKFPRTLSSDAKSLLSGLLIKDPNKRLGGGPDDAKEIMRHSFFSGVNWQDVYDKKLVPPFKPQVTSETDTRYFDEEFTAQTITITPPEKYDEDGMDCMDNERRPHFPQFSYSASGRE
T6 sequence (Q9Y243 whole entry): as above
T2 sequence (P31751 whole entry): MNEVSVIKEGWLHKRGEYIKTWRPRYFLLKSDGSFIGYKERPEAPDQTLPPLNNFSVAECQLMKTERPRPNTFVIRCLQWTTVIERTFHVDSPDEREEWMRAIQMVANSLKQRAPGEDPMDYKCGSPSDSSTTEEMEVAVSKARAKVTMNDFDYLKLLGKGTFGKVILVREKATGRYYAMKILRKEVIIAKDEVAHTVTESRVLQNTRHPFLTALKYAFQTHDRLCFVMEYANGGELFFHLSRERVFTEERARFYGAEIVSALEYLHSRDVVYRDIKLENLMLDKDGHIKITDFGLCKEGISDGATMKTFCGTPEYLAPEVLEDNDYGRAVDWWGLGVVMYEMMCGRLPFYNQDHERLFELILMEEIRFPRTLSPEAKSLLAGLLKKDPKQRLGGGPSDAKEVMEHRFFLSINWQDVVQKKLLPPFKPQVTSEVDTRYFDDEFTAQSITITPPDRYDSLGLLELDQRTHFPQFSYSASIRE
T5 sequence (P31751 whole entry): as above

CC(C)(N)c1ccc(-c2ncc(NC(=O)C[C@H]3CC[C@H](NC(=O)C4CC4)CC3)cc2-c2ccccc2)cc1 [Example A20, N-(trans-4-(2-((6-(4-(2-aminopropan-2-yl)phenyl)-5-phenylpyridin-3-yl)amino)-2-oxoethyl)cyclohexyl)cyclopropane-carboxamide]
IC50 (Akt1): > 36000 nM | IC50 (Akt2): 2300 nM | IC50 (Akt3): 55 nM | IC50 (p-Akt1 in LNCaP cells): > 30000 nM | IC50 (p-Akt2 in WM115 cells): 5400 nM | IC50 (p-Akt3 in WM115 cells): 200 nM

CN([C@H]1CC[C@H](CC(=O)Nc2cnc(-c3ccc(C(C)(C)N)cc3)c(-c3ccsc3)c2)CC1)S(C)(=O)=O [Example A24, N-(6-(4-(2-aminopropan-2-yl)phenyl)-5-(thiophen-3-yl)pyridin-3-yl)-2-(trans-4-(N-methylmethylsulfonamido)cyclo-hexyl)acetamide]
IC50 (Akt1): > 30000 nM | IC50 (Akt2): 9600 nM | IC50 (Akt3): 2000 nM | IC50 (p-Akt1 in LNCaP cells): > 30000 nM | IC50 (p-Akt2 in WM115 cells): 8900 nM | IC50 (p-Akt3 in WM115 cells): 510 nM

CN([C@H]1CC[C@H](CC(=O)Nc2cnc(-c3ccc(C(C)(C)N)cc3)c(-c3ccccc3)c2)CC1)S(C)(=O)=O [Example A25, N-(6-(4-(2-aminopropan-2-yl)phenyl)-5-phenylpyridin-3-yl)-2-(trans-4-(N-methylmethylsulfonamido)cyclo-hexyl)acetamide]
IC50 (Akt1): > 30000 nM | IC50 (Akt2): 5100 nM | IC50 (Akt3): 560 nM | IC50 (p-Akt1 in LNCaP cells): > 15000 nM | IC50 (p-Akt2 in WM115 cells): 5400 nM | IC50 (p-Akt3 in WM115 cells): 260 nM

CN([C@H]1CC[C@H](CC(=O)Nc2cnc(-c3ccc(C(C)(C)N)cc3)c(-c3ccccc3F)c2)CC1)S(C)(=O)=O [Example A26, N-(6-(4-(2-aminopropan-2-yl)phenyl)-5-(2-fluorophenyl)pyridin-3-yl)-2-(trans-4-(N-methylmethylsulfonamido)cyclo-hexyl)acetamide]
IC50 (Akt1): > 30000 nM | IC50 (Akt2): 3300 nM | IC50 (Akt3): 740 nM | IC50 (p-Akt1 in LNCaP cells): > 30000 nM | IC50 (p-Akt2 in WM115 cells): 7000 nM | IC50 (p-Akt3 in WM115 cells): 390 nM

COC(=O)N(C)[C@H]1CC[C@H](CC(=O)Nc2cnc(-c3ccc(C(C)(C)N)c(F)c3)c(-c3ccccc3)c2)CC1 [Example A28, Methyl (trans-4-(2-((6-(4-(2-aminopropan-2-yl)-3-fluorophenyl)-5-phenylpyridin-3-yl)amino)-2-oxoethyl)cyclohexyl)(methyl)carbamate]
IC50 (Akt1): > 30000 nM | IC50 (Akt2): > 30000 nM | IC50 (Akt3): 5900 nM | IC50 (p-Akt1 in LNCaP cells): > 30000 nM | IC50 (p-Akt2 in WM115 cells): > 20000 nM | IC50 (p-Akt3 in WM115 cells): 1500 nM

CN(C(=O)C1CC1)[C@H]1CC[C@H](CC(=O)Nc2cnc(-c3ccc(C(C)(C)N)cc3)c(-c3ccccc3)c2)CC1 [Example A29, N-(trans-4-(2-((6-(4-(2-aminopropan-2-yl)phenyl)-5-phenylpyridin-3-yl)amino)-2-oxoethyl)cyclohexyl)-N-methylcyclopropanecarboxamide]
IC50 (Akt1): > 30000 nM | IC50 (Akt2): 5700 nM | IC50 (Akt3): 490 nM | IC50 (p-Akt1 in LNCaP cells): > 28000 nM | IC50 (p-Akt2 in WM115 cells): 5800 nM | IC50 (p-Akt3 in WM115 cells): 150 nM

CC(C)(C)CC(=O)N[C@H]1CC[C@H](CC(=O)Nc2cnc(-c3ccc(C(C)(C)N)cc3)c(-c3ccccc3)c2)CC1 [Example A37, N-(trans-4-(2-((6-(4-(2-aminopropan-2-yl)phenyl)-5-phenylpyridin-3-yl)amino)-2-oxoethyl)cyclohexyl)-3,3-dimethylbutanamide]
IC50 (Akt1): > 30000 nM | IC50 (Akt2): 3500 nM | IC50 (Akt3): 61 nM | IC50 (p-Akt1 in LNCaP cells): > 30000 nM | IC50 (p-Akt2 in WM115 cells): 8700 nM | IC50 (p-Akt3 in WM115 cells): 340 nM

CC(=O)N[C@H]1CC[C@H](CC(=O)Nc2cnc(-c3ccc(C4(N)CCC4)cc3)c(-c3ccccc3)c2)CC1 [Example A38, 2-(trans-4-acetamidocyclohexyl)-N-(6-(4-(1-aminocyclobutyl)phenyl)-5-phenylpyridin-3-yl)acetamide]
IC50 (Akt1): 10000 nM | IC50 (Akt2): 190 nM | IC50 (Akt3): 18 nM | IC50 (p-Akt1 in LNCaP cells): > 5700 nM | IC50 (p-Akt2 in WM115 cells): 1600 nM | IC50 (p-Akt3 in WM115 cells): 120 nM

CCCC(=O)N[C@H]1CC[C@H](CC(=O)Nc2cnc(-c3ccc(C4(N)CC4)cc3)c(-c3ccccc3)c2)CC1 [Example A41, N-(trans-4-(2-((6-(4-(1-aminocyclopropyl)phenyl)-5-phenylpyridin-3-yl)amino)-2-oxoethyl)cyclohexyl)butyramide]
IC50 (Akt1): 11000 nM | IC50 (Akt2): 370 nM | IC50 (Akt3): 75 nM | IC50 (p-Akt1 in LNCaP cells): 3600 nM | IC50 (p-Akt2 in WM115 cells): 840 nM | IC50 (p-Akt3 in WM115 cells): 59 nM

CC(=O)N(C(C)C)[C@H]1CC[C@H](CC(=O)Nc2cnc(-c3ccc(C(C)(C)N)cc3)c(-c3ccccc3)c2)CC1 [Example A44, N-(6-(4-(2-aminopropan-2-yl)phenyl)-5-phenylpyridin-3-yl)-2-(trans-4-(N-isopropylacetamido)cyclohexyl)acetamide]
IC50 (Akt1): > 30000 nM | IC50 (Akt2): 13000 nM | IC50 (Akt3): 1800 nM | IC50 (p-Akt1 in LNCaP cells): > 30000 nM | IC50 (p-Akt2 in WM115 cells): 11000 nM | IC50 (p-Akt3 in WM115 cells): 440 nM

CC(C)(N)c1ccc(-c2ncc(NC(=O)C[C@H]3CC[C@H](C(=O)N4CCOCC4)CC3)cc2-c2ccccc2)cc1 [Example A46, N-(6-(4-(2-aminopropan-2-yl)phenyl)-5-phenylpyridin-3-yl)-2-(trans-4-(morpholine-4-carbonyl)cyclohexyl)acetamide]
IC50 (Akt1): > 30000 nM | IC50 (Akt2): 2400 nM | IC50 (Akt3): 1000 nM | IC50 (p-Akt1 in LNCaP cells): > 30000 nM | IC50 (p-Akt2 in WM115 cells): 6300 nM | IC50 (p-Akt3 in WM115 cells): 190 nM

CC(C)(N)c1ccc(-c2ncc(NC(=O)C[C@H]3CC[C@H](C(=O)N4CCCC4)CC3)cc2-c2ccccc2)cc1 [Example A47, N-(6-(4-(2-aminopropan-2-yl)phenyl)-5-phenylpyridin-3-yl)-2-(trans-4-(pyrrolidine-1-carbonyl)cyclohexyl)acetamide]
IC50 (Akt1): > 30000 nM | IC50 (Akt2): 2100 nM | IC50 (Akt3): 370 nM | IC50 (p-Akt1 in LNCaP cells): > 30000 nM | IC50 (p-Akt2 in WM115 cells): 11000 nM | IC50 (p-Akt3 in WM115 cells): 440 nM

CC(C)(N)c1ccc(-c2cnc(NC(=O)C[C@H]3CC[C@H](N4CCCC4=O)CC3)cc2-c2ccccc2)cc1 [Example A49, N-(5-(4-(2-aminopropan-2-yl)phenyl)-4-phenylpyridin-2-yl)-2-(trans-4-(2-oxopyrrolidin-1-yl)cyclohexyl)acetamide]
IC50 (Akt1): > 30000 nM | IC50 (Akt2): 3600 nM | IC50 (Akt3): 120 nM | IC50 (p-Akt1 in LNCaP cells): > 30000 nM | IC50 (p-Akt2 in WM115 cells): 4400 nM | IC50 (p-Akt3 in WM115 cells): 200 nM

NC1(c2ccc(-c3nnc(NC(=O)C[C@H]4CC[C@H](N5CCOC5=O)CC4)cc3-c3ccccc3)cc2F)CC1 [Example A50, N-(6-(4-(1-aminocyclopropyl)-3-fluorophenyl)-5-phenylpyridazin-3-yl)-2-(trans-4-(2-oxooxazolidin-3-yl)cyclohexyl)acetamide]
IC50 (Akt1): > 30000 nM | IC50 (Akt2): 2200 nM | IC50 (Akt3): 140 nM | IC50 (p-Akt1 in LNCaP cells): > 30000 nM | IC50 (p-Akt2 in WM115 cells): > 3790 nM | IC50 (p-Akt3 in WM115 cells): 270 nM

NC1(c2ccc(-c3cnc(NC(=O)C[C@H]4CC[C@H](N5CCOC5=O)CC4)cc3-c3ccccc3)cc2)CC1 [Example A51, N-(5-(4-(1-aminocyclopropyl)phenyl)-4-phenylpyridin-2-yl)-2-(trans-4-(2-oxooxazolidin-3-yl)cyclohexyl)acetamide]
IC50 (Akt1): > 30000 nM | IC50 (Akt2): 340 nM | IC50 (Akt3): 42 nM | IC50 (p-Akt1 in LNCaP cells): > 30000 nM | IC50 (p-Akt2 in WM115 cells): 2000 nM | IC50 (p-Akt3 in WM115 cells): 150 nM

CC(C)(N)c1ccc(-c2cnc(NC(=O)C[C@H]3CC[C@H](N4CCOC4=O)CC3)cc2-c2ccsc2)cc1 [Example A52, N-(5-(4-(2-aminopropan-2-yl)phenyl)-4-(thiophen-3-yl)pyridin-2-yl)-2-(trans-4-(2-oxooxazolidin-3-yl)cyclohexyl)acetamide]
IC50 (Akt1): > 30000 nM | IC50 (Akt2): 11000 nM | IC50 (Akt3): 640 nM | IC50 (p-Akt1 in LNCaP cells): > 30000 nM | IC50 (p-Akt2 in WM115 cells): 2600 nM | IC50 (p-Akt3 in WM115 cells): 240 nM

Source: patent publication US10336702B2, “Pharmaceutically active compounds” (BERGENBIO ASA, priority 2015, dated 2019)
